According to patent US4148795A, “Dithiocarbamate ester bactericides and fungicides” (American Cyanamid Company, priority 1976, dated 1979):
Where “and” joins values, the source holds several entries; their conditions need not be identical. Equal entries are not always repeated. Where two headings read alike, the source gives them in different places.

Columns and labels:
Aspergillus niger [1] = assay: Spore germination inhibition; assay type: cell-based; conditions: 24 hours
Excerpt: (§1) The test procedure involves the preparation of a 100, 10 or 1 ppm. suspension of test compound in water. The solutions are placed in one dram "opticlear" vials and separately inoculated with one drop of a spore suspension prepared from seven-day cultures of Aspergillus niger and 14-day old cultures of Monilinia fructicola and Stemphylium sarcinaeforme,all grown on potato-dextrose agar. The vials containing the separately inoculated solutions of test compounds are then capped and placed on a rotating tumbler for 24 hours to assure contact of the organism with the test compound. After 24 hours, the vials are removed and examined for inhibition of […].

Monilinia fructicola [2] = assay: Spore germination inhibition; assay type: cell-based; conditions: for inhibition at 1 ppm / inhibition at 10 ppm: 24 hours; for inhibition at 100 ppm: 24 h, read-out: % Inhibition of Spore Germination
Excerpt: as §1

[3] = tested on: Stemphylium sarcinaeforme; assay: Spore germination inhibition; assay type: cell-based; conditions: Stemphylium sarciniforme; for inhibition at 100 ppm: 24 h, read-out: % Inhibition of Spore Germination; for inhibition at 1 ppm / inhibition at 10 ppm: 24 hours
Excerpt: as §1

Aerobacter aerogenes = assay type: cell-based; conditions: 100 ppm; subcultures 72 hours at 37° C; note: key: 0: No Effect; 9: Kill of Bacteria; 5: Stasis, but not Kill of all Bacteria
Staphylococcus aureus = assay type: cell-based; conditions: 100 ppm; subcultures 72 hours at 37° C; note: key: 0: No Effect; 9: Kill of Bacteria; 5: Stasis, but not Kill of all Bacteria
Xanthomonas vesicatoria = assay type: cell-based; conditions: 100 ppm; subcultures 72 hours at 37° C; note: key: 0: No Effect; 9: Kill of Bacteria; 5: Stasis, but not Kill of all Bacteria
Aspergillus niger [4] = assay: Agar dilution plate; assay type: cell-based; conditions: An; 100 ppm, 72 hours at 23° C
Experimental: (§2) Test compounds were incorporated in a Sabouraud's dextrose agar in an amount sufficient to provide the active ingredient in a concentration of about 100 ppm. A twenty-ml. sample of the agar mixture is placed in a petri dish and permitted to solidify. An agar sample is inoculated with the test organism set forth below and then covered and incubated for a period of about 72 hours at 23° C. After incubation, growth observations are made. The test results are recorded and the test is repeated twice for the purpose of comparison.
(§3) The data obtained with a variety of test organisms is shown in the table below, and ratings are shown as 0 or 5. O indicates no control, 5 indicates 100% effectiveness of the test compound against the specified organism.

Fusarium lycopersici = assay: Agar dilution plate; assay type: cell-based; conditions: Fl; 100 ppm, 72 hours at 23° C
Experimental: as §2, §3

Monilinia fructicola [5] = assay: Agar dilution plate; assay type: cell-based; conditions: Mf; 100 ppm, 72 hours at 23° C
Experimental: as §2, §3

Pythium de Baryanum = assay: Agar dilution plate; assay type: cell-based; conditions: Pd; 100 ppm, 72 hours at 23° C
Experimental: as §2, §3

Rhizoctonia solani = assay: Agar dilution plate; assay type: cell-based; conditions: Rs; 100 ppm, 72 hours at 23° C
Experimental: as §2, §3

[6] = tested on: Stemphylium sarcinaeforme; assay: Agar dilution plate; assay type: cell-based; conditions: Ss; 100 ppm, 72 hours at 23° C
Experimental: as §2, §3
Ss= Stemphylium sarcinaeforme

Pseudomonas solaracaerum = assay type: cell-based
[7] = tested on: Collectotrichum lagenarium; assay: Agar dilution plate; assay type: cell-based; conditions: Cl; 100 ppm, 72 hours at 23° C
Experimental: as §2, §3
Cl= Collectotrichum lagenarium

Verticillium albo-atrum = assay: Agar dilution plate; assay type: cell-based; conditions: Va; 100 ppm, 72 hours at 23° C
Experimental: as §2, §3
Va= Verticillium albo-atrum

Piricularia oryzae = assay type: in vivo; design: scale not given here; conditions: Rice Blast, five days
Phytophthora infestans = assay type: in vivo; design: scale not given here; conditions: Tomato Late Blight, five days
Venturia inaequalis = conditions: in vivo; note: key: 5: clean, no disease; 4: trace of disease; 3: slight disease; 2: moderate disease; 1: severe disease; 0: like controls

Compound | inhibition at 1 ppm (Aspergillus niger [1]) | inhibition at 10 ppm (Aspergillus niger [1]) | inhibition at 100 ppm (Aspergillus niger [1]) | inhibition at 1 ppm (Monilinia fructicola [2]) | inhibition at 10 ppm (Monilinia fructicola [2]) | inhibition at 100 ppm (Monilinia fructicola [2]) | inhibition at 100 ppm [3] | inhibition at 1 ppm [3] | Antibacterial Activity rating (Aerobacter aerogenes) | Antibacterial Activity rating (Staphylococcus aureus) | Antibacterial Activity rating (Xanthomonas vesicatoria) | Agar Dilution Plate rating (Aspergillus niger [4]) | Agar Dilution Plate rating (Fusarium lycopersici) | Agar Dilution Plate rating (Monilinia fructicola [5]) | Agar Dilution Plate rating (Pythium de Baryanum) | Agar Dilution Plate rating (Rhizoctonia solani) | Agar Dilution Plate rating [6] | Agar Dilution Plate rating (Pseudomonas solaracaerum; 100 ppm, 72 hours at 23° C) | Agar Dilution Plate rating [7] | Agar Dilution Plate rating (Verticillium albo-atrum) | other results
CC(=O)C(CSC(=S)N(C)C)=C(C)O [Example 9, 2-(1-Hydroxyethylidene)-3-oxobutyl Dimethyldithiocarbamate] | 0% | 0% | 100% | 0% | 0% | 100% | 100% | 0% | 0 | 5 | 0 | 0 | 0 | 0 | 0 | 0 | 0 | 0 | 5 (100% effectiveness of the test compound against the specified organism) | 0 | inhibition at 10 ppm [3]: 0%; disease control index (Piricularia oryzae; 150 ppm): 0; disease control index (Piricularia oryzae; 300 ppm): 2; disease control index (Piricularia oryzae; 600 ppm): 3; disease control index (Piricularia oryzae; 1200 ppm): 4
CC(=O)C(CSC(=S)N(C)C)SC(=S)N(C)C (stereo not shown) [Example 10, Acetylethylene Dimethyldithiocarbamate] | 100% | 100% | 100% | 100% | 100% | 100% | 100% | 100% | 9 | 9 | 5 | 5 (100% effectiveness of the test compound against the specified organism) | 5 (100% effectiveness of the test compound against the specified organism) | 5 (100% effectiveness of the test compound against the specified organism) | 5 (100% effectiveness of the test compound against the specified organism) | 5 (100% effectiveness of the test compound against the specified organism) | 5 (100% effectiveness of the test compound against the specified organism) | – | 5 (100% effectiveness of the test compound against the specified organism) | 5 (100% effectiveness of the test compound against the specified organism) | inhibition at 10 ppm [3]: 100%; Agar Dilution Plate rating (Pseudomonas solaracaerum): 0; disease control index (Phytophthora infestans; at 100 ppm): 4; disease control index (Phytophthora infestans; at 500 ppm): 5; disease control index (Piricularia oryzae; at 75 ppm): 4; disease control index (Piricularia oryzae; at 500 ppm): 5
CN(C)C(=S)SC(C[N+](=O)[O-])c1ccc(Cl)cc1Cl (stereo not drawn) [Example 17, 2,4-Dichloro-α-(nitromethyl)benzyl Dimethyldithiocarbamate] | – | – | – | – | – | – | – | – | 0 | 5 | 0 | 0 | 0 | 0 | 0 | 0 | 0 | 0 | 5 (100% effectiveness of the test compound against the specified organism) | 5 (100% effectiveness of the test compound against the specified organism) | disease control index (Phytophthora infestans; 150 ppm): 0; disease control index (Phytophthora infestans; 300 ppm): 4; disease control index (Phytophthora infestans; 600 ppm): 5; disease control index (Phytophthora infestans; 1200 ppm): 5; disease control index (Piricularia oryzae; 150 ppm): 3; disease control index (Piricularia oryzae; 300 ppm): 5; disease control index (Piricularia oryzae; 600 ppm): 5; disease control index (Piricularia oryzae; 1200 ppm): 5; disease control index (Venturia inaequalis): 5 and 0
CN(C)C(=S)SCC(SC(=S)N(C)C)C(=O)c1ccccc1 (stereo not shown) [Example 11] | – | – | – | – | – | – | – | – | 0 | 5 | 0 | 0 | 0 | 5 (100% effectiveness of the test compound against the specified organism) | 0 | 0 | 0 | 0 | 5 (100% effectiveness of the test compound against the specified organism) | 0 | disease control index (Phytophthora infestans; at 100 ppm): 3; disease control index (Phytophthora infestans; at 500 ppm): 4; disease control index (Piricularia oryzae; at 75 ppm): 3; disease control index (Piricularia oryzae; at 500 ppm): 4; disease control index (Venturia inaequalis): 5
CC(C)c1ccc(C(C[N+](=O)[O-])SC(=S)N(C)C)cc1 (stereo not drawn) [Example 26, p-Isopropyl-α-(nitromethyl)benzyl Dimethyldithiocarbamate] | – | – | – | – | – | – | – | – | 0 | 5 | 0 | 0 | 0 | 5 (100% effectiveness of the test compound against the specified organism) | 5 (100% effectiveness of the test compound against the specified organism) | 5 (100% effectiveness of the test compound against the specified organism) | 5 (100% effectiveness of the test compound against the specified organism) | 0 | 5 (100% effectiveness of the test compound against the specified organism) | 5 (100% effectiveness of the test compound against the specified organism) | disease control index (Phytophthora infestans; 150 ppm): 3; disease control index (Phytophthora infestans; 300 ppm): 4; disease control index (Phytophthora infestans; 600 ppm): 4; disease control index (Phytophthora infestans; 1200 ppm): 5; disease control index (Piricularia oryzae; 150 ppm): 4; disease control index (Piricularia oryzae; 300 ppm): 4; disease control index (Piricularia oryzae; 600 ppm): 5; disease control index (Piricularia oryzae; 1200 ppm): 5; disease control index (Venturia inaequalis): 5 and 0
CCC(CSC(=S)N(C)C)[N+](=O)[O-] (stereo not shown) [Example 6, 2-Nitrobutyl Dimethyldithiocarbamate] | 0% | 100% | 100% | 100% | 100% | 100% | 100% | 100% | 9 | 9 | 9 | 5 (100% effectiveness of the test compound against the specified organism) | 5 (100% effectiveness of the test compound against the specified organism) | 5 (100% effectiveness of the test compound against the specified organism) | 5 (100% effectiveness of the test compound against the specified organism) | 5 (100% effectiveness of the test compound against the specified organism) | 5 (100% effectiveness of the test compound against the specified organism) | 0 | 5 (100% effectiveness of the test compound against the specified organism) | 5 (100% effectiveness of the test compound against the specified organism) | inhibition at 10 ppm [3]: 100%
